Experimental data: ChEMBL document CHEMBL1133283, “Arylsulfonyl-N,N-diethyl-dithiocarbamates: a novel class of antitumor agents” (Bioorg Med Chem Lett, 2000)
One block for each compound: values may come before it.

How the values were obtained:
[1] = molecular target: Carbonic anhydrase 2 (Homo sapiens, UniProt P00918); experiment: Binding affinity of compound against human Carbonic anhydrase II
[2] = tested on: HOP-62; experiment: In vitro growth inhibition of compound was determined against HOP-62 cell lines of non-small cell lung cancer; assay type: functional; conditions: Homo sapiens
[3] = tested on: SW-620; experiment: In vitro growth inhibition of compound was determined against SW-620 cell lines of colon cancer; assay type: functional; conditions: Homo sapiens
[4] = tested on: SK-MEL-5; experiment: In vitro growth inhibition of compound was determined against SK-MEL-5 cell lines of Melanoma; assay type: functional; conditions: Homo sapiens
[5] = tested on: Hs-578T; experiment: In vitro growth inhibition of compound was determined against Hs 578.T cell lines of Breast cancer; assay type: functional; conditions: Homo sapiens
[6] = tested on: HCT-15; experiment: In vitro growth inhibition of compound was determined against HCT-15 cell lines of colon cancer; assay type: functional; conditions: Homo sapiens
[7] = tested on: OVCAR-3; experiment: In vitro growth inhibition of compound was determined against OVCAR-3 cell lines of Ovarian cancer; assay type: functional; conditions: Homo sapiens
[8] = tested on: CAKI-1; experiment: In vitro growth inhibition of compound was determined against CAKI-1 cell lines of Renal cancer; assay type: functional; conditions: Homo sapiens
[9] = tested on: HOP-92; experiment: In vitro growth inhibition of compound was determined against HOP-92 cell lines of non-small cell lung cancer; assay type: functional; conditions: Homo sapiens
[10] = tested on: UACC-257; experiment: In vitro growth inhibition of compound was determined against UACC-257 cell lines of Melanoma; assay type: functional; conditions: Homo sapiens
[11] = tested on: HCT-116; experiment: In vitro growth inhibition of compound was determined against HCT116 cell lines of colon cancer; assay type: functional; conditions: Homo sapiens
[12] = tested on: MCF7; experiment: In vitro growth inhibition of compound was determined against MCF-7 cell lines of Breast cancer; assay type: functional; conditions: Homo sapiens
[13] = tested on: NCI/ADR-RES; experiment: In vitro growth inhibition of compound was determined against NCI/ADR-RES cell lines of Breast cancer; assay type: functional; conditions: Homo sapiens
[14] = tested on: M14; experiment: In vitro growth inhibition of compound was determined against M14 cell lines of Melanoma; assay type: functional; conditions: Homo sapiens
[15] = tested on: K562; experiment: In vitro growth inhibition of compound was determined against K-562 cell lines of Leukemia; assay type: functional; conditions: Homo sapiens
[16] = tested on: HT-29; experiment: In vitro growth inhibition of compound was determined against HT-29 cell lines of colon cancer; assay type: functional; conditions: Homo sapiens
[17] = tested on: MDA-MB-231; experiment: In vitro growth inhibition of compound was determined against MDA-MB-231/ATCC cell lines of Breast cancer; assay type: functional; conditions: Homo sapiens
[18] = tested on: BT-549; experiment: In vitro growth inhibition of compound was determined against BT-549 cell lines of Breast cancer; assay type: functional; conditions: Homo sapiens
[19] = tested on: UO-31; experiment: In vitro growth inhibition of compound was determined against UO-31 cell lines of Renal cancer; assay type: functional; conditions: Homo sapiens
[20] = tested on: SF-268; experiment: In vitro growth inhibition of compound was determined against SF-268 cell lines of CNS cancer; assay type: functional; conditions: Homo sapiens
[21] = tested on: MDA-MB-435; experiment: In vitro growth inhibition of compound was determined against MDA-MB-435 cell lines of Breast cancer; assay type: functional; conditions: Homo sapiens
[22] = tested on: 786-0; experiment: In vitro growth inhibition of compound was determined against […] cell lines of Renal cancer; assay type: functional; conditions: Homo sapiens
[23] = tested on: NCI-H522; experiment: In vitro growth inhibition of compound was determined against NCI-H522 cell lines of non-small cell lung cancer; assay type: functional; conditions: Homo sapiens
[24] = tested on: COLO 205; experiment: In vitro growth inhibition of compound was determined against COLO-205 cell lines of colon cancer; assay type: functional; conditions: Homo sapiens
[25] = tested on: KM12; experiment: In vitro growth inhibition of compound was determined against KM12 cell lines of colon cancer; assay type: functional; conditions: Homo sapiens
[26] = tested on: OVCAR-4; experiment: In vitro growth inhibition of compound was determined against OVCAR-4 cell lines of Ovarian cancer; assay type: functional; conditions: Homo sapiens
[27] = tested on: SR; experiment: In vitro growth inhibition of compound was determined against SR cell lines of Leukemia; assay type: functional; conditions: Homo sapiens
[28] = tested on: MDA-N; experiment: In vitro growth inhibition of compound was determined against MDA-Ncell lines of Breast cancer; assay type: functional; conditions: Homo sapiens
[29] = tested on: OVCAR-8; experiment: In vitro growth inhibition of compound was determined against OVCAR-8 cell lines of Ovarian cancer; assay type: functional; conditions: Homo sapiens
[30] = tested on: SF-295; experiment: In vitro growth inhibition of compound was determined against SF-295 cell lines of CNS cancer; assay type: functional; conditions: Homo sapiens
[31] = tested on: LOX IMVI; experiment: In vitro growth inhibition of compound was determined against LOX IMVI cell lines of Melanoma; assay type: functional; conditions: Homo sapiens
[32] = tested on: A549; experiment: In vitro growth inhibition of compound was determined against A549/ATCC cell lines of non-small cell lung cancer; assay type: functional; conditions: Homo sapiens
[33] = tested on: TK-10; experiment: In vitro growth inhibition of compound was determined against TK-10 cell lines of Renal cancer; assay type: functional; conditions: Homo sapiens
[34] = tested on: SNB-75; experiment: In vitro growth inhibition of compound was determined against SNB-75 cell lines of CNS cancer; assay type: functional; conditions: Homo sapiens
[35] = tested on: NCI-H226; experiment: In vitro growth inhibition of compound was determined against NCI-H226 cell lines of non-small cell lung cancer; assay type: functional; conditions: Homo sapiens
[36] = tested on: ACHN; experiment: In vitro growth inhibition of compound was determined against ACHN cell lines of Renal cancer; assay type: functional; conditions: Homo sapiens
[37] = tested on: HCC 2998; experiment: In vitro growth inhibition of compound was determined against HCC2998 cell lines of colon cancer; assay type: functional; conditions: Homo sapiens
[38] = tested on: RXF 393; experiment: In vitro growth inhibition of compound was determined against RXF393 cell lines of Renal cancer; assay type: functional; conditions: Homo sapiens
[39] = tested on: RPMI-8226; experiment: In vitro growth inhibition of compound was determined against RPMI-8226 cell lines of Leukemia; assay type: functional; conditions: Homo sapiens
[40] = tested on: SN12C; experiment: In vitro growth inhibition of compound was determined against SN12C cell lines of Renal cancer; assay type: functional; conditions: Homo sapiens
[41] = tested on: Malme-3M; experiment: In vitro growth inhibition of compound was determined against MALME-3M cell lines of Melanoma; assay type: functional; conditions: Homo sapiens
[42] = tested on: SK-MEL-28; experiment: In vitro growth inhibition of compound was determined against SK-MEL-28 cell lines of Melanoma; assay type: functional; conditions: Homo sapiens
[43] = tested on: SF-539; experiment: In vitro growth inhibition of compound was determined against SF-539 cell lines of CNS cancer; assay type: functional; conditions: Homo sapiens
[44] = tested on: DU-145; experiment: In vitro growth inhibition of compound was determined against DU-145 cell lines of Prostate cancer; assay type: functional; conditions: Homo sapiens
[45] = tested on: U-251; experiment: In vitro growth inhibition of compound was determined against U251 cell lines of CNS cancer; assay type: functional; conditions: Homo sapiens

SMILES: NS(=O)(=O)c1ccc(NSC(=S)N2CCOCC2)cc1
- Ki [1]: 0.035 µM

SMILES: NS(=O)(=O)c1ccc(CCNSC(=S)N2CCOCC2)cc1
- Ki [1]: 0.035 µM

SMILES: NS(=O)(=O)c1ccc(CNSC(=S)N2CCOCC2)cc1
- Ki [1]: 0.035 µM

- GI50 [3]: 18 µM
- GI50 [4]: 2 µM
- GI50 [6]: 52 µM
- GI50 [7]: 35 µM
- GI50 [11]: 5 µM
- GI50 [12]: 6 µM
- GI50 [15]: 19 µM
- GI50 [16]: 22 µM
- GI50 [17]: 26 µM
- GI50 [18]: 36 µM
- GI50 [21]: 23 µM
- GI50 [22]: 16 µM
- GI50 [23]: 0.02 µM
- GI50 [24]: 19 µM
- GI50 [26]: 45 µM
- GI50 [29]: 20 µM
- GI50 [32]: 1 µM
- GI50 [35]: 83 µM
- GI50 [36]: 36 µM
- GI50 [37]: 94 µM
- GI50 [39]: 12 µM
- GI50 [42]: 19 µM
- GI50 [44]: 27 µM
- GI50 [45]: 14 µM
SMILES: CCN(CC)C(=S)SS(=O)(=O)c1ccc([N+](=O)[O-])cc1
- GI50 [2]: 32 µM
- GI50 [5]: > 100 µM
- GI50 [8]: 18 µM
- GI50 [9]: 4 µM
- GI50 [10]: 24 µM
- GI50 [13]: 48 µM
- GI50 [14]: 15 µM
- GI50 [19]: 21 µM
- GI50 [20]: > 100 µM
- GI50 [25]: 11 µM
- GI50 [27]: 0.1 µM
- GI50 [28]: 30 µM
- GI50 [30]: 59 µM
- GI50 [31]: 17 µM
- GI50 [33]: 43 µM
- GI50 [34]: 77 µM
- GI50 [38]: 16 µM
- GI50 [40]: 27 µM
- GI50 [41]: 14 µM
- GI50 [43]: 20 µM
